Assay results published in patent US20090170759A1, “NEUROPROTECTIVE PEPTIDES” (priority 2007, published 2009).
“Also recorded” adds a separate entry of the source.

What was measured:
bclXL = experiment: EPO induced gene expression in PC12 cells, quantitative RT-PCR (bclXL); type: cell-based, rat; conditions: PC-12 cells
Description: (§1) PC-12 cells (from a rat Pheochromocytoma) were cultured on poly-D-Lysine coated tissue culture plastic in DMEM containing 10% FBS and 5% Horse serum. To induce the neuronal phenotype in PC-12 cells, serum was removed and the cells were treated with NGF (50 ng/ml). Cells were grown for 7 days in the presence of the NGF then used for experiments.
PC-12 cells were cultured as described in Example 1 in a 10 cm poly-D-lysine coated tissue culture dish. Cells were incubated in the presence of 1 U/ml of EPO for 24 hr. Total RNA was then isolated using a Qiagen RNAeasy mini prep kit and used for RT-PCR.
Real time reverse transcription and PCR were performed in a single reaction using a light cycler and an RNA amplification kit from Roche Molecular Biochemicals. RNA was quantitated and added in equal amounts to reaction mix that includes the dsDNA specific dye SYBR green I. Specific PCR reaction products are quantitated by detecting the amount of fluorescence in the reaction at each PCR cycle. Final analysis was performed using the data analysis software included with the light cycler instrument.

PC-12 cells = experiment: NGF withdrawal in PC-12 cells; type: cell-based, rat
Description: as §1, with “[…] cells (from” for “PC-12 cells (from”
PC-12 cells were cultured as described above in a 96 well poly-d-lysine coated multi-well plate and treated with rhEPO (1 pm to 10 nm) for 24 hr prior to NGF withdrawal. On the day of the experiment the cells were washed with buffer 3 times to remove NGF and then cultured in fresh media without NGF. Immediately following NGF washout cells were counted (t=0) to determine the number of living cells. Cell viability was based on morphological characteristics including phase brightness, presence of axons, and absence of blebbing. Cell counts were performed at 12 hr, 24 hr, 48 hr and 72 hr and the number of viable cells were scored.

[1] = test system: rat cerebral cortical cultures; experiment: Neurite outgrowth assay (MAP2-FITC immunofluorescence), cortical cultures; type: cell-based
Excerpt: (§2) Dissociated hippocampal and cortical cell cultures were established from embryonic day 18 rat fetuses as previously described (Mattson et al., 1994). Briefly, fetuses were removed via cesarean section from pregnant moms (Sprague-Dawley) anesthetized with halothane according to the AVMA Panel on Euthanasia. Pups were decapitated and the brains were removed and placed in HEPES-buffered Hank's Balanced Salt solution (HBSS; Gibco). The hippocampi and cortices were dissected out and pooled according to tissue-type. Tissue was trypsinized for 15 min (1 mg/ml trypsin-HBSS; Worthington), rinsed with fresh HBSS, incubated in trypsin inhibitor (1 mg/ml; Sigma) for 5 min, rinsed again with fresh HBSS and then triturated in 1 ml fresh HBSS with a fire-polished glass pipette. Dissociated cells were seeded at 30,000 cells/well onto poly-D-lysine coated 96-well plates (Collaborative BioScience). Each well contained 100 μl of Eagle's Minimal Essential Media (MEM; Gibco) supplemented with 26 mM NaHCO3 (Sigma), 56 mM glucose (Sigma), 15 mM KCl (Sigma), 1 mM sodium pyruvate (Sigma), 1.1 mM L-glutamine (Sigma), 10% (v/v) heat-inactivated fetal bovine serum (Hyclone), and 0.001% gentamicin sulfate (Sigma) (pH 7.4). Cells were allowed to attach for 24 h in a humidified 37° C. 5% CO2 incubator before experimental treatment. The culture media was aspirated and exchanged with fresh media every three days.
(§3) Twenty-four hours after plating, cultures were treated with vehicle (PBS+0.1% BSA), 100 ng of various growth factors (brain derived neurotrophic factor (BDNF; Promega), glial-derived neurotrophic factor (GDNF; Promega), nerve growth factor (NGF; Boehringer Mannheim), basic fibroblast growth factor (bFGF; Boehringer Mannheim), insulin-like growth factor-1 (IGF-1; Boehringer Mannheim), neurotrophin-3 (NT3; Calbiochem), neurotrophin-4 (NT4; Calbiochem), ciliary neurotrophic factor (CNTF; Calbiochem), epidermal growth factor (EGF; Calbiochem), vascular endothelial growth factor (VEGF; Calbiochem)), or rhEPO (prepared same as above; 10 fM-10 nM)). Each treatment condition was run in quadruplicate or octuplicate. On the third day in culture, the media was aspirated off and replaced with fresh media and test compound. At one week in culture, the cells were fixed with 10% phosphate-buffered formalin for 15 min, then rinsed with DPBS (Sigma) and placed in blocking serum for 30 min (horse serum; 1:50 dilution in DPBS; Vector Labs). Cultures were rinsed again with DPBS and then incubated in primary antibody for 2 hr (microtubule-associated protein-2 (MAP-2) is a selective marker for dendritic processes; anti-mouse monoclonal (Chemicon); 1:1000 dilution of MAP-2 in antibody diluent (Zymed)). Negative control wells were incubated in antibody diluent alone. Background signal was determined by blank wells (cell-free) incubated with or without antibody. Cultures were rinsed again with DPBS and then placed in fluorescein for 1 hr (FITC; anti-mouse IgG; rat adsorbed; 1:50 dilution in DPBS; Vector Labs). Cultures were rinsed a final time with DPBS and then the plates were read on a Cytofluor 4000 fluorescence plate reader. Neurite outgrowth was expressed as percent change from control (vehicle; mean fluorescence±SD).
(§4) Dissociated hippocampal and cortical cell cultures were established from embryonic day 18 rat fetuses as previously described (Mattson et al., 1994). Briefly, fetuses were removed via cesarean section from pregnant moms (Sprague-Dawley) anesthetized with halothane according to the AVMA Panel on Euthanasia. Pups were decapitated and the brains were removed and placed in HEPES-buffered Hank's Balanced Salt solution (HBSS; Gibco). The hippocampi and cortices were dissected out and pooled according to tissue-type. […]

rat hippocampal cultures = experiment: Neurite outgrowth assay (MAP2-FITC immunofluorescence), hippocampal cultures; type: cell-based
Excerpt: as §2, §3, §4

rhEPO: purified, recombinant human EPO (rhEPO), currently formulated and distributed under the trademarks of EPREX, ERYPO, or PROCRIT
increase in the expression of the anti-apoptotic gene bclXL (bclXL; 1 nm EPO for 24 hr (FIG. 3 legend)): 6 fold | increase in the expression of the anti-apoptotic gene bclXL (bclXL; EPO 1 U/ml for 24 hr): 6 fold | neuroprotective effect at 1 nm, growth factor withdrawal (PC-12 cells; 1 nm): no significant effect | peak / optimum concentration for the neuroprotective effect, NGF withdrawal (PC-12 cells; 24 hr pre-treatment before NGF withdrawal): 10 pm | viable cells / cell death after NGF withdrawal (in words) (PC-12 cells; 24 hr pre-treatment, 12 hr, 24 hr, 48 hr and 72 hr after withdrawal, listed as EPO): significant decrease in cell death; also recorded: increased the number of viable cells at each time point | neurite outgrowth response over control, cortical cultures ([1]; Example 3, one week in culture): 15-29% | neurite outgrowth in rat cerebral cortical cultures (in words) ([1]; figure legends): promotes neurite outgrowth | ability to increase neurite outgrowth in cortical cultures compared with known growth factors ([1]; growth factors at 100 ng): greater than or equal to that of known growth factors | neurite outgrowth response over control, hippocampal cultures (rat hippocampal cultures; Example 3, one week in culture): 12-44% | neurite outgrowth in rat hippocampal cultures (in words) (rat hippocampal cultures; figure legends): promotes neurite outgrowth | neurite outgrowth promoting activity in hippocampus compared with growth factors (rat hippocampal cultures; growth factors at 100 ng): superior to several growth factors including BDNF, NGF and VEGF
